Patent publication US20050112573A1, “Method of detecting toxic substance” (priority 2001, published 2005)

Tested on: yeast genes (level of expressed mRNA)
Experiment: DNA chip analysis of expressed mRNA of yeast genes after 2 h culture with a toxic chemical substance
Assay type: cell-based, Saccharomyces cerevisiae S288C
Method in brief: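 S. cerevisiae S288C grown at 25° C in YPD; toxicant added at log phase at growth-inhibitory, non-lethal levels for 2 h, untreated cells as control. Poly(A) mRNA reverse-transcribed with Cy3/Cy5-dUTP, hybridized to whole-genome chip at 65° C >12 h; value is fluorescence ratio versus untreated.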

Oc1cc(Cl)c(Cl)cc1Cl [(6), 2,4,5-trichlorophenol]
The level of expressed mRNA in the presence of chemical substance/The level of expressed mRNA in the absence of chemical substance (yeast gene YKL013C): 1.9 | The level of expressed mRNA in the presence of chemical substance/The level of expressed mRNA in the absence of chemical substance (yeast gene YKL039W): 4.9 | The level of expressed mRNA in the presence of chemical substance/The level of expressed mRNA in the absence of chemical substance (yeast gene YKL041W): 2.2 | The level of expressed mRNA in the presence of chemical substance/The level of expressed mRNA in the absence of chemical substance (yeast gene YKL096W): 0.6 | The level of expressed mRNA in the presence of chemical substance/The level of expressed mRNA in the absence of chemical substance (yeast gene YKL165C): 0.6 | The level of expressed mRNA in the presence of chemical substance/The level of expressed mRNA in the absence of chemical substance (yeast gene YKL193C): 0.9 | The level of expressed mRNA in the presence of chemical substance/The level of expressed mRNA in the absence of chemical substance (yeast gene YLR120C): 1.9 | The level of expressed mRNA in the presence of chemical substance/The level of expressed mRNA in the absence of chemical substance (yeast gene YLR136C): 1.7 | The level of expressed mRNA in the presence of chemical substance/The level of expressed mRNA in the absence of chemical substance (yeast gene YLR178C): 4.2 | The level of expressed mRNA in the presence of chemical substance/The level of expressed mRNA in the absence of chemical substance (yeast gene YLR250W): 1.1 | The level of expressed mRNA in the presence of chemical substance/The level of expressed mRNA in the absence of chemical substance (yeast gene YLR327C): 5.1 | The level of expressed mRNA in the presence of chemical substance/The level of expressed mRNA in the absence of chemical substance (yeast gene YLR356W): 3.4 | The level of expressed mRNA in the presence of chemical substance/The level of expressed mRNA in the absence of chemical substance (yeast gene YLR362W): 0.8 | The level of expressed mRNA in the presence of chemical substance/The level of expressed mRNA in the absence of chemical substance (yeast gene YLR391W): 1.5 | The level of expressed mRNA in the presence of chemical substance/The level of expressed mRNA in the absence of chemical substance (yeast gene YLR429W): 0.8 | The level of expressed mRNA in the presence of chemical substance/The level of expressed mRNA in the absence of chemical substance (yeast gene YMR004W): 0.5 | The level of expressed mRNA in the presence of chemical substance/The level of expressed mRNA in the absence of chemical substance (yeast gene YMR094W): 0.5 | The level of expressed mRNA in the presence of chemical substance/The level of expressed mRNA in the absence of chemical substance (yeast gene YMR104C): 1.9 | The level of expressed mRNA in the presence of chemical substance/The level of expressed mRNA in the absence of chemical substance (yeast gene YMR219W): 0.8 | The level of expressed mRNA in the presence of chemical substance/The level of expressed mRNA in the absence of chemical substance (yeast gene YMR226C): 2.6 | The level of expressed mRNA in the presence of chemical substance/The level of expressed mRNA in the absence of chemical substance (yeast gene YMR275C): 1.4 | The level of expressed mRNA in the presence of chemical substance/The level of expressed mRNA in the absence of chemical substance (yeast gene YMR276W): 0.8 | The level of expressed mRNA in the presence of chemical substance/The level of expressed mRNA in the absence of chemical substance (yeast gene YMR314W): 1.3 | The level of expressed mRNA in the presence of chemical substance/The level of expressed mRNA in the absence of chemical substance (yeast gene YNL006W): 1.0 | The level of expressed mRNA in the presence of chemical substance/The level of expressed mRNA in the absence of chemical substance (yeast gene YNL007C): 0.6 | The level of expressed mRNA in the presence of chemical substance/The level of expressed mRNA in the absence of chemical substance (yeast gene YNL093W): 1.6 | The level of expressed mRNA in the presence of chemical substance/The level of expressed mRNA in the absence of chemical substance (yeast gene YNL333W): 1.5 | The level of expressed mRNA in the presence of chemical substance/The level of expressed mRNA in the absence of chemical substance (yeast gene YNR010W): 1.3 | The level of expressed mRNA in the presence of chemical substance/The level of expressed mRNA in the absence of chemical substance (yeast gene YNR069C): 1.7 | The level of expressed mRNA in the presence of chemical substance/The level of expressed mRNA in the absence of chemical substance (yeast gene YOL013C): 1.1 | The level of expressed mRNA in the presence of chemical substance/The level of expressed mRNA in the absence of chemical substance (yeast gene YOL164W): 1.2 | The level of expressed mRNA in the presence of chemical substance/The level of expressed mRNA in the absence of chemical substance (yeast gene YOR036W): 1.7 | The level of expressed mRNA in the presence of chemical substance/The level of expressed mRNA in the absence of chemical substance (yeast gene YOR117W): 1.1 | The level of expressed mRNA in the presence of chemical substance/The level of expressed mRNA in the absence of chemical substance (yeast gene YOR124C): 0.9 | The level of expressed mRNA in the presence of chemical substance/The level of expressed mRNA in the absence of chemical substance (yeast gene YOR132W): 1.6 | The level of expressed mRNA in the presence of chemical substance/The level of expressed mRNA in the absence of chemical substance (yeast gene YOR157C): 1.2 | The level of expressed mRNA in the presence of chemical substance/The level of expressed mRNA in the absence of chemical substance (yeast gene YOR181W): 0.9 | The level of expressed mRNA in the presence of chemical substance/The level of expressed mRNA in the absence of chemical substance (yeast gene YOR185C): 3.0 | The level of expressed mRNA in the presence of chemical substance/The level of expressed mRNA in the absence of chemical substance (yeast gene YOR198C): 0.9 | The level of expressed mRNA in the presence of chemical substance/The level of expressed mRNA in the absence of chemical substance (yeast gene YOR259C): 0.8 | The level of expressed mRNA in the presence of chemical substance/The level of expressed mRNA in the absence of chemical substance (yeast gene YOR261C): 1.4 | The level of expressed mRNA in the presence of chemical substance/The level of expressed mRNA in the absence of chemical substance (yeast gene YOR288C): 1.0 | The level of expressed mRNA in the presence of chemical substance/The level of expressed mRNA in the absence of chemical substance (yeast gene YOR355W): 1.6 | The level of expressed mRNA in the presence of chemical substance/The level of expressed mRNA in the absence of chemical substance (yeast gene YOR383C): 6.8 | The level of expressed mRNA in the presence of chemical substance/The level of expressed mRNA in the absence of chemical substance (yeast gene YPL089C): 0.8 | The level of expressed mRNA in the presence of chemical substance/The level of expressed mRNA in the absence of chemical substance (yeast gene YPL109C): 1.2 | The level of expressed mRNA in the presence of chemical substance/The level of expressed mRNA in the absence of chemical substance (yeast gene YPL149W): 0.9 | The level of expressed mRNA in the presence of chemical substance/The level of expressed mRNA in the absence of chemical substance (yeast gene YPL154C): 3.5 | The level of expressed mRNA in the presence of chemical substance/The level of expressed mRNA in the absence of chemical substance (yeast gene YPR103W): 1.2 | The level of expressed mRNA in the presence of chemical substance/The level of expressed mRNA in the absence of chemical substance (yeast gene YPR108W): 1.5
